# Experimental data from the supplement of paper PMC10307832.
# Columns and labels:
# Experiment in all cases: relative viability (nuclei count vs DMSO), 5 days (fraction); higher = more cells survive
# [1] = compound: COc1cc2ncn(-c3cc(OCc4ccccc4C(F)(F)F)c(C(N)=O)s3)c2cc1OC + CS(=O)(=O)N1CCN(Cc2cc3nc(-c4cccc5[nH]ncc45)nc(N4CCOCC4)c3s2)CC1 [Pictilisib] (partner 1 µM)
# Outline: (§1)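 Nuclei were stained with Hoechst during a one-step fixation (final 0.05% Triton X-100, 1% formaldehyde, 1 ug/ml Hoechst) carried out 5 days after dosing, then counted on 4× images. The cells, lung cancer lines in 1536-well plates, had been dosed by pin tool the day after seeding with one drug alone or a fixed anchor-drug dose plus five library-drug doses (not always all listed) in √10 steps. Relative viability is the nuclei count in treated wells divided by that in vehicle wells, and each value is the median of duplicate plates.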
# [2] = compound: COc1cc2ncn(-c3cc(OCc4ccccc4C(F)(F)F)c(C(N)=O)s3)c2cc1OC + Cc1nc(NC(=O)N2CCC[C@H]2C(N)=O)sc1-c1ccnc(C(C)(C)C(F)(F)F)c1 [Alpelisib] (partner 2 µM)
# Outline: as §1
# [3] = compound: COc1cc2ncn(-c3cc(OCc4ccccc4C(F)(F)F)c(C(N)=O)s3)c2cc1OC + N=C(N)NC(=N)NCCc1ccccc1 [Phenformin] (partner 250 µM)
# Outline: as §1
# [4] = compound: COc1cc2ncn(-c3cc(OCc4ccccc4C(F)(F)F)c(C(N)=O)s3)c2cc1OC + NC(=O)Nc1cc(-c2cccc(F)c2)sc1C(=O)N[C@H]1CCCNC1 [AZD7762] (partner 0.2 µM)
# Outline: as §1
cell line,measurement,setting,value
NCI-H1944,relative viability,[1]; first compound 0.05 µM,0.368
same,relative viability,[1]; first compound 0.1581 µM,0.363
same,relative viability,[1]; first compound 0.5 µM,0.307
same,relative viability,[1]; first compound 1.581 µM,0.206
same,relative viability,[1]; first compound 5 µM,0.166
same,relative viability,[2]; first compound 0.05 µM,0.871
same,relative viability,[2]; first compound 0.1581 µM,0.901
same,relative viability,[2]; first compound 0.5 µM,0.619
same,relative viability,[2]; first compound 1.581 µM,0.173
same,relative viability,[2]; first compound 5 µM,0.118
same,relative viability,[3]; first compound 0.05 µM,0.211
same,relative viability,[3]; first compound 0.1581 µM,0.234
same,relative viability,[3]; first compound 0.5 µM,0.174
same,relative viability,[3]; first compound 1.581 µM,0.106
same,relative viability,[3]; first compound 5 µM,0.0856
same,relative viability,[4]; first compound 0.05 µM,0.546
same,relative viability,[4]; first compound 0.1581 µM,0.545
same,relative viability,[4]; first compound 0.5 µM,0.426
same,relative viability,[4]; first compound 1.581 µM,0.168
same,relative viability,[4]; first compound 5 µM,0.0968
NCI-H1975,relative viability,[1]; first compound 0.05 µM,0.285
same,relative viability,[1]; first compound 0.1581 µM,0.324
same,relative viability,[1]; first compound 0.5 µM,0.257
same,relative viability,[1]; first compound 1.581 µM,0.133
same,relative viability,[1]; first compound 5 µM,0.157
same,relative viability,[2]; first compound 0.05 µM,0.645
same,relative viability,[2]; first compound 0.1581 µM,0.609
same,relative viability,[2]; first compound 0.5 µM,0.359
same,relative viability,[2]; first compound 1.581 µM,0.153
same,relative viability,[2]; first compound 5 µM,0.152
same,relative viability,[3]; first compound 0.05 µM,0.44
same,relative viability,[3]; first compound 0.1581 µM,0.392
same,relative viability,[3]; first compound 0.5 µM,0.229
same,relative viability,[3]; first compound 1.581 µM,0.162
same,relative viability,[3]; first compound 5 µM,0.113
same,relative viability,[4]; first compound 0.05 µM,0.737
same,relative viability,[4]; first compound 0.1581 µM,0.751
same,relative viability,[4]; first compound 0.5 µM,0.564
same,relative viability,[4]; first compound 1.581 µM,0.433
same,relative viability,[4]; first compound 5 µM,0.261
NCI-H1993,relative viability,[1]; first compound 0.1581 µM,0.812
same,relative viability,[1]; first compound 0.5 µM,0.73
same,relative viability,[1]; first compound 1.581 µM,0.553
same,relative viability,[1]; first compound 5 µM,0.588
same,relative viability,[2]; first compound 0.05 µM,0.662
same,relative viability,[2]; first compound 0.1581 µM,0.674
same,relative viability,[2]; first compound 0.5 µM,0.605
same,relative viability,[2]; first compound 1.581 µM,0.519
same,relative viability,[2]; first compound 5 µM,0.517
same,relative viability,[3]; first compound 0.05 µM,0.474
same,relative viability,[3]; first compound 0.1581 µM,0.527
same,relative viability,[3]; first compound 0.5 µM,0.5
same,relative viability,[3]; first compound 1.581 µM,0.495
same,relative viability,[3]; first compound 5 µM,0.428
same,relative viability,[4]; first compound 0.05 µM,0.921
same,relative viability,[4]; first compound 0.1581 µM,0.814
same,relative viability,[4]; first compound 0.5 µM,0.53
same,relative viability,[4]; first compound 1.581 µM,0.418
same,relative viability,[4]; first compound 5 µM,0.381
NCI-H2085,relative viability,[1]; first compound 0.05 µM,0.47
same,relative viability,[1]; first compound 0.1581 µM,0.45
same,relative viability,[1]; first compound 0.5 µM,0.463
same,relative viability,[1]; first compound 1.581 µM,0.273
same,relative viability,[1]; first compound 5 µM,0.273
same,relative viability,[2]; first compound 0.05 µM,1.01
same,relative viability,[2]; first compound 0.1581 µM,0.959
same,relative viability,[2]; first compound 0.5 µM,0.75
same,relative viability,[2]; first compound 1.581 µM,0.4
same,relative viability,[2]; first compound 5 µM,0.386
same,relative viability,[3]; first compound 0.05 µM,0.719
same,relative viability,[3]; first compound 0.1581 µM,0.725
same,relative viability,[3]; first compound 0.5 µM,0.367
same,relative viability,[3]; first compound 1.581 µM,0.234
same,relative viability,[3]; first compound 5 µM,0.251
same,relative viability,[4]; first compound 0.05 µM,0.969
same,relative viability,[4]; first compound 0.1581 µM,0.964
same,relative viability,[4]; first compound 0.5 µM,0.862
same,relative viability,[4]; first compound 1.581 µM,0.39
same,relative viability,[4]; first compound 5 µM,0.248
NCI-H2087,relative viability,[1]; first compound 0.05 µM,1.11
same,relative viability,[1]; first compound 0.1581 µM,0.556
same,relative viability,[1]; first compound 0.5 µM,0.454
same,relative viability,[1]; first compound 1.581 µM,0.211
same,relative viability,[1]; first compound 5 µM,0.134
same,relative viability,[2]; first compound 0.05 µM,1.18
same,relative viability,[2]; first compound 0.1581 µM,0.953
same,relative viability,[2]; first compound 0.5 µM,0.311
same,relative viability,[2]; first compound 1.581 µM,0.169
same,relative viability,[2]; first compound 5 µM,0.142
same,relative viability,[3]; first compound 0.05 µM,0.51
same,relative viability,[3]; first compound 0.1581 µM,0.458
same,relative viability,[3]; first compound 0.5 µM,0.269
same,relative viability,[3]; first compound 1.581 µM,0.111
same,relative viability,[3]; first compound 5 µM,0.107
same,relative viability,[4]; first compound 0.05 µM,1.37
same,relative viability,[4]; first compound 0.1581 µM,1.22
same,relative viability,[4]; first compound 0.5 µM,0.575
same,relative viability,[4]; first compound 1.581 µM,0.12
same,relative viability,[4]; first compound 5 µM,0.109
NCI-H2126,relative viability,[1]; first compound 0.05 µM,0.462
same,relative viability,[1]; first compound 0.1581 µM,0.517
same,relative viability,[1]; first compound 0.5 µM,0.477
same,relative viability,[1]; first compound 1.581 µM,0.254
same,relative viability,[1]; first compound 5 µM,0.229
same,relative viability,[2]; first compound 0.05 µM,0.731
same,relative viability,[2]; first compound 0.1581 µM,0.803
same,relative viability,[2]; first compound 0.5 µM,0.668
same,relative viability,[2]; first compound 1.581 µM,0.293
same,relative viability,[2]; first compound 5 µM,0.234
same,relative viability,[3]; first compound 0.05 µM,0.481
same,relative viability,[3]; first compound 0.1581 µM,0.579
same,relative viability,[3]; first compound 0.5 µM,0.367
same,relative viability,[3]; first compound 1.581 µM,0.265
same,relative viability,[3]; first compound 5 µM,0.261
same,relative viability,[4]; first compound 0.05 µM,1.05
same,relative viability,[4]; first compound 0.1581 µM,1.03
same,relative viability,[4]; first compound 0.5 µM,0.881
same,relative viability,[4]; first compound 1.581 µM,0.446
same,relative viability,[4]; first compound 5 µM,0.258
NCI-H2170,relative viability,[1]; first compound 0.05 µM,0.342
same,relative viability,[1]; first compound 0.1581 µM,0.318
same,relative viability,[1]; first compound 0.5 µM,0.188
same,relative viability,[1]; first compound 1.581 µM,0.192
same,relative viability,[1]; first compound 5 µM,0.156
same,relative viability,[2]; first compound 0.05 µM,0.789
same,relative viability,[2]; first compound 0.1581 µM,0.799
same,relative viability,[2]; first compound 0.5 µM,0.41
same,relative viability,[2]; first compound 1.581 µM,0.176
same,relative viability,[2]; first compound 5 µM,0.18
same,relative viability,[3]; first compound 0.05 µM,0.444
same,relative viability,[3]; first compound 0.1581 µM,0.351
same,relative viability,[3]; first compound 0.5 µM,0.32
same,relative viability,[3]; first compound 1.581 µM,0.195
same,relative viability,[3]; first compound 5 µM,0.179
same,relative viability,[4]; first compound 0.05 µM,0.889
same,relative viability,[4]; first compound 0.1581 µM,0.765
same,relative viability,[4]; first compound 0.5 µM,0.306
same,relative viability,[4]; first compound 1.581 µM,0.146
same,relative viability,[4]; first compound 5 µM,0.166
NCI-H2347,relative viability,[1]; first compound 0.05 µM,0.689
same,relative viability,[1]; first compound 0.1581 µM,0.435
same,relative viability,[1]; first compound 0.5 µM,0.503
same,relative viability,[1]; first compound 1.581 µM,0.394
same,relative viability,[1]; first compound 5 µM,0.375
same,relative viability,[2]; first compound 0.05 µM,0.896
same,relative viability,[2]; first compound 0.1581 µM,0.92
same,relative viability,[2]; first compound 0.5 µM,0.813
same,relative viability,[2]; first compound 1.581 µM,0.581
same,relative viability,[2]; first compound 5 µM,0.735
same,relative viability,[3]; first compound 0.05 µM,0.361
same,relative viability,[3]; first compound 0.1581 µM,0.374
same,relative viability,[3]; first compound 0.5 µM,0.493
same,relative viability,[3]; first compound 1.581 µM,0.353
same,relative viability,[3]; first compound 5 µM,0.277
same,relative viability,[4]; first compound 0.05 µM,0.832
same,relative viability,[4]; first compound 0.1581 µM,0.726
same,relative viability,[4]; first compound 0.5 µM,0.716
same,relative viability,[4]; first compound 1.581 µM,0.435
same,relative viability,[4]; first compound 5 µM,0.393
